Test [1] concerns MCM4 gene promoter in A3 cells. Briefly: Oxidative DNA damage within MCM4 gene promoter (qPCR). Format: cell-based, human. To be noted: 10 μM, 72 h. As to the method:
We adapted the procedure described by O’Callaghan et al. ([46]) to measure oxidative DNA damage at the MCM4 gene promoter region. This is a qPCR method based on differences in PCR kinetics between DNA template digested by FPG and undigested DNA. We have modified the original protocol to incorporate another purified human OGG1 to quantify the accumulation of base lesions specific for OGG1, 8-oxoguanine. Conditions used for incubation were 200 ng of gDNA together with 2.4 μM of hOGG1 during 4 h. The quantitative real-time amplification of genomic DNA was performed as described by O’Callaghan et al. ([46]). Specific primers were used at a final concentration of 100 nM (promoterMCM4-F: 5′-GCTGTGATTGGTGAGGCCC -3′; promoterMCM4-R: 5′-CAAACCGCGAGACCCAGAG-3′) . Amplification cycling conditions were 10 min at 95°C, followed by 40 cycles of 95°C for 15 s and 60°C for 1 min. ΔCT method was run in an ABI quant studio 1 and all samples were loaded and analyzed in triplicate.
Figure 6. TH5487 treatment induces a downregulation of DNA replication genes (A) Gene Set Enrichment analysis plot of the DNA Replication Gene Ontology Gene Set. […] Only genes with a mean normalized count >5 were analyzed. […] Statistical significance was determined using a two-sided unpaired t-test (ns, non-significant, *P < 0.05, **P < 0.01, ***P < 0.001 and ****P < 0.0001).

Test [2] has as its system Ogg1−/− mouse embryonic fibroblasts. Briefly: Colony formation assay. Format: cell-based. The conditions noted are these: up to 20 μM. On the procedure:
The indicated concentrations TH5487 were spotted in 6-well plates using a Tecan D300e digital dispenser. 200–500 cells/well H460, ACHN, Ogg1^−/− mouse embryonic fibroblasts and MRC5 cells were then seeded at 200–500 cells/well and incubated for 7–11 days. Colonies exceeding 50 cells were fixed, stained and enumerated as above.
Figure 3. The OGG1 inhibitor TH5487 is selectively toxic to oncogene-expressing cells and cancer cell lines. (A) Close-up view of ligand TH5487 (green) binding to human OGG1. Important residues in the binding site are marked, hydrogen bond interactions are shown in black dashed line, water (red sphere)-mediated interactions in grey dashed line. (B) Comparison between the binding of ligand TH5487 (green) to human OGG1 (gray) with the structure of TH5675 (pink) bound to mouse OGG1 (yellow, PDB 6G3Y). (C) Viability of BJ-Tert and BJ-Ras cells exposed to the indicated concentrations TH5487 for five days. Data are average ±SD of four technical replicates from two independent experiments. (D) Clonogenic survival of cell lines exposed to TH5487. The cancer cell lines ACHN and H460, and the non-transformed cell lines MRC5 and Ogg1^−/− mouse embryonic fibroblasts (MEF) were incubated for 6–11 days in the presence of the indicated concentrations TH5487, followed by colony enumeration. […]

With `O=C(Nc1ccc(I)cc1)N1CCC(n2c(=O)[nH]c3c(Br)cccc32)CC1` [TH5487], in test [1], the “Oxidative DNA damage at SP1 binding motif of MCM4 promoter” value is “significant accumulation of oxidative DNA damage”. Further, in test [2], the Clonogenic potential entry was “unaffected”.

The values are drawn from article PMC7708037, “Targeting OGG1 arrests cancer cell proliferation by inducing replication stress” (Nucleic Acids Research, 2020).
